# Test results published in US6610699B2, “Use of L-carnitine and its alkanoyl derivatives in the preparation of medicaments with anticancer activity” (Sigma-Tau Industrie Farmaceutiche Riunite S.p.A., priority 1998, dated 2003).
# Columns and labels:
# [1] = test system: Hamsters; experiment: Bleomycin-induced pulmonary toxicity in hamsters: lung hydroxyproline content; assay type: in vivo, hamster; conditions: pre-treatment i.p. (ALC 200 mg/kg or saline, daily 1 week)/intratracheal instillation (bleomycin 1 unit or saline); day 22
# Description: (§1) Hamsters weighing 120 g were treated with bleomycin (1 unit) by the intratracheal route (IT) or with an equivalent volume of saline. In addition, the animals were pre-treated with ALC (200 mg/kg) or saline intraperitoneally just before the instillation of bleomycin, followed by daily injections for 1 week. The animals were allowed 3 weeks to recover prior to taking the tissue samples. At the time tissue samples were taken (day 22), one lung of each animal was prepared for histological investigation and the other lung for quantitative determination of hydroxyproline.
# The hydroxyproline content (one of the main constituents of collagen) was measured using the known Woessner method. Lung samples were homogenised, hydrolysed with NaOH, and then left to oxidise before adding Erlich aldehyde reagent. Duplicate aliquots of each sample were assayed by spectrophotometry and compared with a standard calibration curve obtained with purified hydroxyproline. The hydroxyproline content (HYP) is expressed as mg/lung.
# [2] = test system: Female Wistar rats; experiment: Taxol-induced peripheral neuropathy: sensory nerve conduction velocity measured on the tail; conditions: 5 weeks
# Description: Female Wistar rats aged 3 months (Charles River) were used, housed at 22±2° C., with 50±15% relative humidity and a 12 hour light/darkness cycle.
# The following method was used: the animals, anaesthetised with a gaseous mixture composed of 0.45 halothane, nitrogen protoxide and oxygen, were depilated in the stimulation zone and placed on an operating table. The recordings and stimulations of the sensory responses were done using an Ote Biomedica Phasis II electromyograph. […]
# The sensory nerve conduction velocity, expressed in ms, was calculated as the ratio of the distance between the two stimulation points, expressed in mm, to the difference in latency of the waves produced by proximal (the nearest) and distal (the farthest from the dorsal spine) stimulation, expressed in ms.
# The velocity was measured in all groups of animals both in basal conditions (prior to any administration) and after 5 weeks of treatment.
# The results were expressed as means±standard deviation; significance was assessed using the “t”-test, for both independent and paired data, with a statistical significance cut-off of p<0.05.
# [3] = test system: BALB/c mice inoculated with murine carcinoma of the breast (L-MM3); experiment: Taxol-induced neutropenia in mice with L-MM3 carcinoma of the breast, blood cell count
# Description: In addition, in this tumour model, the amount of circulating neutrophils was measured.
# Acetyl L-carnitine inner salt (sterile ampoule), solubilised in water for injectable preparations, was used. Each ampoule of ALC is dissolved in 4 ml of water for injections (Solution O). 0.8 ml of (O) are brought to 50 ml with sterile PBS (Sigma) in order to perform the oral administration (100 mg/kg/50 ml).
# At the time of use, the 12 mg/ml solution is diluted 1:4 with saline in phosphate buffer (PBS) (SIGMA,) and injected i.p. (30 mg/kg/10 ml).
# Animals: 120 female BALB/c mice weighing 18-20 g (Harlan)
# Treatment schedule 1: the transplantable murine breast cancer cells (L-MM3) of Balb/c origin are grown at 37° C. in plastic flasks in a 5% CO2 humidified incubator in DMEM medium containing 5% heat-inactivated FCS, L-glutamine 2 mM, and gentamicin 80 μg/ml. At the time of inoculation, the cells are detached with trypsin-EDTA and re-suspended in the same medium without […].
# Unanaesthetised female Balb/c mice received subcutaneous injections in the flank of 4×10^5 cells in 0.2 ml of DMEM.
# Four days after inoculation of the tumour, the animals were treated with the molecules according to the following schedule, for the purposes of evaluating neutropenia:
# ALC is administered then for 10 days; the animals are sacrificed after 6 hours.
# The experimental groups, each consisting of 15 mice, are:
# Blood and bone marrow samples are taken for the first treatment schedule animals. On the days they are sacrificed, the mice are anaesthetised with CO2; blood is taken from the retro-orbital plexus (0.5 ml blood/mouse) and placed in Eppendorf test tubes containing 10 μl of Vister heparin (5000 U/ml). The animals are sacrificed by cervical dislocation. Later, the bone marrow samples are taken.
# The instrument is used according to the instructions provided in the operating manual. The blood (25 μl) is taken from the dilutor and brought to a volume of 10 ml with isotonic solution (PLTA Saline, Delcon) in a beaker (dil. 1:400) (Solution A). From Solution A, the dilutor takes 100 μl and brings them to 10 ml (dil. 1:100) in another beaker (Solution B). To Solution A are added 3 drops of lysing agent (Emosol, Delcon), the solution is mixed by hand and left to act for approximately 2 minutes so that the red blood cells are lysed and HGB (haemoglobin) released. Solution A containing the lysing agent is used for the WBC and haemoglobin (HGB) readings. Solution B is used for the RBC and platelet (PLT) readings.
# Double readings are done on each sample, and between one sample and the next, the instrument is washed using isotonic solution, Superfrost plus slides (25×75×1 mm) (Mensel-Glaser), ready for use, are adopted. The blood (8 μl) is deposited on the right-hand side of the slide; another slide, placed at a 45° angle, to the left of the blood, is drawn back until in comes into contact with the drop which spreads rapidly along the contact line between the two slides; the slide is moved forwards with a smooth, rapid movement so as to obtain a thin film of blood. The slide is left to dry in air, stained with Diff-Quick (DADE) dye, according to the attached instructions, and dried again in air.
# The slides are immersed in Histolemon solution (Carlo Erba) for 2 sec.; a drop of synthetic mountant (Shandon) is deposited at the centre of the slide and a cover slide is placed over it covering the entire blood smear, taking care not to form bubbles between the two slides. The slides are dried and then the WBC count is performed, up to 100, with an optical microscope, after depositing a drop of cedar oil on the slide.
# The quantity of […], assessed using the haemocytometer, is multiplied by the percentage value of the corresponding neutrophil granulocytes of the leukocyte formula. This parameter, divided by 100, expresses the value of neutrophils/mm^3 blood.
# Comparison between the neutrophil granulocyte values obtained for the different groups is done using ANOVA.
# [4] = test system: Hamsters; experiment: Bleomycin-induced pulmonary toxicity in hamsters: lung histology; assay type: in vivo, hamster; conditions: day 22
# Description: as §1
# The lungs were fixed by insufflation at 20 cm of H2O ex vivo with 10% formaldehyde in PBS (pH 7), embedded in paraffin, sectioned and stained with haematoxylin/eosin. Sections with similar orientation from the portion of the pulmonary lobe—upper, middle and lower, respectively—were examined to verify the presence and degree of inflammatory infiltrate, oedema and interstitial and intra-alveolar fibrosis.
# [5] = test system: murine cancer of the breast (L-MM3); experiment: L-MM3 tumour growth in Balb/c mice (taxol and ALC); assay type: in vivo, mouse
# Description: Treatment schedule 1: the transplantable murine breast cancer cells (L-MM3) of Balb/c origin are grown at 37° C. in plastic flasks in a 5% CO2 humidified incubator in DMEM medium containing 5% heat-inactivated FCS, L-glutamine 2 mM, and gentamicin 80 μg/ml. At the time of inoculation, the cells are detached with trypsin-EDTA and re-suspended in the same medium without PBS.
# Treatment schedule 2: the same experimental groups mentioned above, each consisting of 15 mice (with different cage numbers) are treated as follows in order to evaluate survival and tumour size.
# ALC administration lasts 14 days (in groups 16, 17, 18) and the tumour is measured until it reaches a size of approximately 2 cm. The animals are left alive for 100 days.
# The tumour size (length and width) is measured twice a week with a calliper, from the tumour is measurable. Tumour size is expressed in cm and is evaluated according to the following formula: (length×width).
# Tumour sizes are compared using the non-parametric Mann Whitney test for unpaired data.
# [6] = test system: L-MM3 murine breast cancer cells; experiment: L-MM3 murine breast cancer in Balb/c mice, taxol and PLC, Experiment A (schedule A)
# Description: (§2) Cell cultures of L-MM3 murine breast cancer cells were used, cultured at 37° C. in plastic flasks in a humidified atmosphere with 5% CO^2. The cells were grown in DMEM supplemented with 10% FCS and in the presence of 2 mM L-glutamine and 80 μg/ml of gentamicin. The subconfluent cells were collected during the exponential growth phase using trypsin-EDTA and re-suspended in DMEM. They were then injected subcutaneously in female Balb/c mice weighing 20 g at a density of 4×10^5.
# (§3) The tumour was measured with a calliper three times a week as soon as it became palpable. The tumour mass is calculated on the basis of the measurements of the two dimensions (length and width), expressed in mm, according to the following formula: [formula]
# (§4) If we consider conventionally a tumour density equal to 1, the result is that the tumour volume is equal to (mm^3=mg).
# (§5) The agent is weighed, solubilised in the specific vehicle (12 mg/ml), and stored at +4° C., sheltered from the light. At the time of use, it is diluted 1:4 with saline solution in phosphate buffer (PBS, SIGMA) and injected.
# (§6) Cremophor is diluted 1:1 with ethanol and stored sheltered from the light. On the day of treatment it is diluted 1:4 with PBS.
# [7] = test system: L-MM3 murine breast cancer cells; experiment: L-MM3 murine breast cancer in Balb/c mice, taxol and PLC, Experiment B (schedule B)
# Description: as §2, §3, §4, §5, §6
# [8] = L-MM3-bearing mice, sacrifice 6 hours after last taxol
smiles,measurement,setting,value
"CC(=O)O[C@H](CC(=O)[O-])C[N+](C)(C)C [ALC, acetyl L-carnitine]",hydroxyproline content (HYP),[1],0.801 mg/lung
same,"Sensory nerve conduction velocity, % vs TAXOL",[2]; acetyl L-carnitine with taxol 8 mg/kg,5%
same,"Sensory nerve conduction velocity, % vs TAXOL",[2]; acetyl L-carnitine with taxol 16 mg/kg,9%
same,neutrophil granulocytes,[3]; acetyl L-carnitine 100 mg/kg os once daily for 10 days combined with taxol 30 mg/kg i.p. x4,335 /mm^3
same,lung histology (in words),[4]; animals pre-treated with ALC and given bleomycin IT,"a number of fibrotic areas, which, however, appeared thinner with less dense areas of collapse"
same,lung histology (in words),[4]; pre-treatment/IT instillation,normal alveolar architecture
same,effect on the anticancer activity of taxol (in words),[5]; ALC 100 mg/kg os once daily for 14 days plus taxol 30 mg/kg i.p. x4,did not affect the anticancer activity of taxol
"CC(=O)O[C@H]1C(=O)[C@@]2(C)[C@H]([C@H](OC(=O)c3ccccc3)[C@]3(O)C[C@H](OC(=O)[C@H](O)[C@@H](NC(=O)c4ccccc4)c4ccccc4)C(C)=C1C3(C)C)[C@]1(OC(C)=O)CO[C@@H]1C[C@@H]2O [Taxol, paclitaxel, reference compound]","Animals with tumours/total number of animals, Day 22",[6],6/13
same,"Animals with tumours/total number of animals, Day 25",[6],7/13
same,"Animals with tumours/total number of animals, Day 28",[6],9/13
same,"Animals with tumours/total number of animals, Day 36",[6],11/13
same,"Animals with tumours/total number of animals, Day 46",[6],11/13
same,"Animals with tumours/total number of animals, Day 19","[6]; taxol 30 mg/kg i.p. days 15,17,19,21, PLC 100 mg/kg s.c. days 12-24",6/13
same,Lymphocytes,"[3]; mouse, in vivo",98.6 ± 0.2%
same,Neutrophils,"[3]; mouse, in vivo",****1.3 ± 0.2^ %
same,Platelets,"[3]; mouse, in vivo",539000 ± 36057 mm^3
same,L-MM3 tumour size,"[5]; taxol 30 mg/kg i.p. every two days x4, when control tumours reached approximately 2 cm (control 1.8 cm)",0.56 cm
same,"Animals with tumours/total animals, Day 45",[7],5/10
same,"Animals with tumours/total animals, Day 59",[7],6/10
same,"Tumour size, Day 26",[7],0.1 ± 0.6
same,"Tumour size, Day 31",[7],0.2 ± 0.2
same,"Tumour size, Day 37",[7],0.45 ± 0.2
same,"Tumour size, Day 41",[7],1.750 ± 1.1
same,"Tumour size, Day 53",[7],5.000 ± 2.2
same,"Tumour size, Day 59",[7],5.6 ± 2.2
same,"Tumour size, Day 0",[7]; day of inoculation,0
same,"Animals with tumours/total animals, Day 31","[7]; taxol 30 mg/kg i.p. days 8,10,12,14, PLC 100 mg/kg s.c. to day 59",2/10
"CC(=O)O[C@H](CC(=O)[O-])C[N+](C)(C)C [Vehicle + ALC, acetyl L-carnitine]",Absolute neutrophils,[3]; [8],***607 ± 68 ^ /mm^3
same,Lymphocytes,[3]; [8],87.6 ± 0.9%
same,Neutrophils,[3]; [8],12.3 ± 0.9%
same,Platelets,[3]; [8],433000 ± 45731 mm^3
same,WBC,"[3]; L-MM3-bearing mice, taxol 30 mg/kg i.p. x4, ALC 100 mg/kg os 10 days, sacrifice 6 hours after last taxol",4950 ± 385 Mm^3
